Assay results: patent US8735364B2, “Antisense modulation of apolipoprotein B expression” (Genzyme Corporation, priority 2001, dated 2014)

Experiments:
Type in all cases: in vivo, mouse
[1] = Lipoprotein (VLDL, LDL, HDL) levels, high fat fed mice, 6 week study; details: for HDL Percent Inhibition / LDL Percent Inhibition / VLDL Percent Inhibition: negative = increase
Method: (§1) Male C57BL/6 mice (n=8) receiving a high fat diet (60% kcal fat) were evaluated over the course of 6 weeks for the effects of treatment with the antisense oligonucleotide, ISIS 147764. Control animals received saline treatment (50 mg/kg). A subset of animals received a daily oral dose (20 mg/kg) atorvastatin calcium (Lipitor®, Pfizer Inc.). All mice, except atorvastatin-treated animals, were dosed intraperitoneally every three days (twice a week), after fasting overnight, with 5, 25, 50 mg/kg ISIS 147764 (SEQ ID No: 109) or saline (50 mg/kg) for six weeks. Serum cholesterol and lipoproteins were analyzed at 0, 2 and 6 week interim timepoints. At study termination, animals were sacrificed 48 hours after the final injections and evaluated for levels of target mRNA levels in liver, cholesterol, lipoprotein, triglyceride, liver enzyme (AST and ALT) and serum glucose levels as well as body, liver, spleen and fat pad weights.
(§2) Male C57BL/6 mice (n=8) receiving a high fat diet (60% kcal fat) were evaluated over the course of 6 weeks for the effects of ISIS 147764 on lipoprotein (VLDL, LDL and HDL) levels. Control animals received saline treatment (50 mg/kg). Mice were dosed intraperitoneally every three days (twice a week), after fasting overnight, with 5, 25, 50 mg/kg ISIS 147764 (SEQ ID No: 109) or saline (50 mg/kg) for six weeks.
Values in the table are expressed as percent inhibition and are normalized to the saline control. Negative values indicate an observed increase in lipoprotein levels.

apolipoprotein B mRNA [2] = assay: Target mRNA levels in liver of ApoE knockout mice, RT-PCR; details: six weeks
Method: Female ApoE knockout mice ranged in age from 5 to 7 weeks and were placed on a normal diet for 2 weeks before study initiation. ApoE knockout mice were then fed ad libitum a 60% fat diet, with 0.15% added cholesterol to induce dyslipidemia and obesity. Control animals were maintained on a high-fat diet with no added cholesterol After overnight fasting, mice from each group were dosed intraperitoneally every three days with saline, 50 mg/kg of a control antisense oligonucleotide (ISIS 29837 […]; SEQ ID NO. 124) or 5, 25 or 50 mg/kg ISIS 147764 (SEQ ID No: 109) for six weeks.
(§3) At study termination and forty eight hours after the final injections, animals were sacrificed and evaluated for target mRNA levels in liver by RT-PCR methods verified by Northern Blot analysis, glucose levels, cholesterol and lipid levels by HPLC separation methods and triglyceride and liver enzyme levels (perfomed by LabCorp Preclinical Services; San Diego, Calif.). Data are normalized to saline controls.

apolipoprotein B mRNA [3] = assay: Target mRNA levels in liver, lean vs high fat fed C57BL/6 mice; details: 50 mg/kg i.p. every three days, six weeks
Method: (§4) Male C57BL/6 mice were divided into two matched groups; (1) wild-type control animals (lean animals) and (2) animals receiving a high fat diet (60% kcal fat). Control animals received saline treatment and were maintained on a normal rodent diet. After overnight fasting, mice from each group were dosed intraperitoneally every three days with saline or 50 mg/kg ISIS 147764 (SEQ ID No: 109) for six weeks. At study termination and forty eight hours after the final injections, animals were sacrificed and evaluated for target mRNA levels in liver, cholesterol and triglyceride levels, liver enzyme levels and serum glucose levels.

[4] = Liver enzyme levels in ApoE knockout mice; details: for Liver Enzyme Levels AST: Control 55; for Liver Enzyme Levels ALT: Control 56
Description: Female ApoE knockout mice ranged in age from 5 to 7 weeks and were placed on a normal diet for 2 weeks before study initiation. ApoE knockout mice were then fed ad libitum a 60% fat diet, with 0.15% added cholesterol to induce dyslipidemia and obesity. […]
as §3

[5] = Cholesterol, lipoprotein, triglyceride and serum glucose levels, lean vs high fat fed C57BL/6 mice; details: 50 mg/kg i.p. every three days, six weeks
Method: as §4

[6] = Body, spleen, liver and fat pad weight, high fat fed mice, 6 week study; details: compared to saline-treated controls
Method: as §1
as §2, with “body, spleen, liver” for “lipoprotein (VLDL, LDL”, “fat pad weight.” for “HDL) levels.”
At study termination, animals were sacrificed 48 hours after the final injections and body, spleen, liver and fat pad weights were measured. Values are expressed as percent change in body weight or ogan weight compared to the saline-treated control animals. Data from mice treated with atorvastatin at a daily dose of 20 mg/kg are also shown in the table Negative values indicated a decrease in weight.

GTCCCTGAAGATGTCAATGC (2'-MOE gapmer with phosphorothioates, pattern not given here) [ISIS 147764, 2′-MOE gapmer phosphorothioate oligonucleotide to mouse apolipoprotein B]
HDL Percent Inhibition ([1]; 5 mg/kg, 0 weeks): 0% | LDL Percent Inhibition ([1]; 5 mg/kg, 0 weeks): 2% | VLDL Percent Inhibition ([1]; 5 mg/kg, 0 weeks): 0% | HDL Percent Inhibition ([1]; 5 mg/kg, 2 weeks): 5% | LDL Percent Inhibition ([1]; 5 mg/kg, 2 weeks): −30% | VLDL Percent Inhibition ([1]; 5 mg/kg, 2 weeks): 25% | HDL Percent Inhibition ([1]; 5 mg/kg, 6 weeks): 10% | LDL Percent Inhibition ([1]; 5 mg/kg, 6 weeks): −10% | VLDL Percent Inhibition ([1]; 5 mg/kg, 6 weeks): 10% | HDL Percent Inhibition ([1]; 25 mg/kg, 0 weeks): 0% | LDL Percent Inhibition ([1]; 25 mg/kg, 0 weeks): 0% | VLDL Percent Inhibition ([1]; 25 mg/kg, 0 weeks): 0% | HDL Percent Inhibition ([1]; 25 mg/kg, 2 weeks): 10% | LDL Percent Inhibition ([1]; 25 mg/kg, 2 weeks): 10% | VLDL Percent Inhibition ([1]; 25 mg/kg, 2 weeks): 30% | HDL Percent Inhibition ([1]; 25 mg/kg, 6 weeks): 45% | LDL Percent Inhibition ([1]; 25 mg/kg, 6 weeks): 55% | VLDL Percent Inhibition ([1]; 25 mg/kg, 6 weeks): −30% | lowering all categories of serum lipoproteins investigated, compared with atorvastatin ([1]; 50 mg/kg): to a greater extent than atorvastatin | HDL Percent Inhibition ([1]; 50 mg/kg, 0 weeks): 0% | LDL Percent Inhibition ([1]; 50 mg/kg, 0 weeks): 0% | VLDL Percent Inhibition ([1]; 50 mg/kg, 0 weeks): 0% | HDL Percent Inhibition ([1]; 50 mg/kg, 2 weeks): 10% | LDL Percent Inhibition ([1]; 50 mg/kg, 2 weeks): 40% | VLDL Percent Inhibition ([1]; 50 mg/kg, 2 weeks): 40% | HDL Percent Inhibition ([1]; 50 mg/kg, 6 weeks): 50% | LDL Percent Inhibition ([1]; 50 mg/kg, 6 weeks): 90% | VLDL Percent Inhibition ([1]; 50 mg/kg, 6 weeks): 15% | mRNA Percent Inhibition (apolipoprotein B mRNA [2]; 5 mg/kg i.p. every three days): 2% | mRNA Percent Inhibition (apolipoprotein B mRNA [2]; 25 mg/kg i.p. every three days): 42% | mRNA Percent Inhibition (apolipoprotein B mRNA [2]; 50 mg/kg i.p. every three days): 70% | mRNA Percent Change (apolipoprotein B mRNA [3]; high fat fed (60% kcal fat) C57BL/6 mice): −87% | mRNA Percent Change (apolipoprotein B mRNA [3]; lean C57BL/6 mice): −73% | changes in liver enzyme levels [4]: No significant changes | Liver Enzyme Levels AST ([4]; 5 mg/kg): 50 IU/L | Liver Enzyme Levels ALT ([4]; 5 mg/kg): 48 IU/L | Liver Enzyme Levels AST ([4]; 25 mg/kg): 60 IU/L | Liver Enzyme Levels ALT ([4]; 25 mg/kg): 59 IU/L | Liver Enzyme Levels AST ([4]; 50 mg/kg): 85 IU/L | Liver Enzyme Levels ALT ([4]; 50 mg/kg): 87 IU/L | CHOL Percent Change ([5]; high fat fed C57BL/6 mice): −67% | GLUC Percent Change ([5]; high fat fed C57BL/6 mice): −28% | Lipoproteins HDL Percent Change ([5]; high fat fed C57BL/6 mice): −65% | Lipoproteins LDL Percent Change ([5]; high fat fed C57BL/6 mice): −87% | Lipoproteins VLDL Percent Change ([5]; high fat fed C57BL/6 mice): No | TRIG Percent Change ([5]; high fat fed C57BL/6 mice): No | CHOL Percent Change ([5]; lean C57BL/6 mice): −63% | GLUC Percent Change ([5]; lean C57BL/6 mice): No | Lipoproteins HDL Percent Change ([5]; lean C57BL/6 mice): −44% | Lipoproteins LDL Percent Change ([5]; lean C57BL/6 mice): −64% | Lipoproteins VLDL Percent Change ([5]; lean C57BL/6 mice): No | TRIG Percent Change ([5]; lean C57BL/6 mice): −34% | Fat pad weight Percent Change ([6]; 5 mg/kg): 10% | Liver weight Percent Change ([6]; 5 mg/kg): 18% | Spleen weight Percent Change ([6]; 5 mg/kg): 10% | Total Body Wt. Percent Change ([6]; 5 mg/kg): 5% | Fat pad weight Percent Change ([6]; 25 mg/kg): 6% | Liver weight Percent Change ([6]; 25 mg/kg): 70% | Spleen weight Percent Change ([6]; 25 mg/kg): 10% | Total Body Wt. Percent Change ([6]; 25 mg/kg): 5% | Fat pad weight Percent Change ([6]; 50 mg/kg): −47% | Liver weight Percent Change ([6]; 50 mg/kg): 80% | Spleen weight Percent Change ([6]; 50 mg/kg): 46% | Total Body Wt. Percent Change ([6]; 50 mg/kg): −4%
